# Assay results reported in ChEMBL document CHEMBL1641524, “Synthesis and SAR of novel CXCR4 antagonists that are potent inhibitors of T tropic (X4) HIV-1 replication” (Bioorg Med Chem Lett, 2011).
# Legend:
# [1] = molecular target: T1, C-X-C chemokine receptor type 4 (Homo sapiens, UniProt P61073); assay: Antagonist activity at CXCR4 in human CEM-CCRF cells expressing CD4 assessed as inhibition of SDF-1-induced Ca2+ signaling; assay type: functional, cell-based
# [2] = system: Human immunodeficiency virus 1; assay: Antiviral activity against X4 tropic HIV1 NL4.3 infected in human MT4 cells expressing CD4 and CXCR4 assessed as inhibition of virus-induced cytopathicity; assay type: functional, organism-based; settings: Human immunodeficiency virus 1, NL4.3, MT4
# [3] = Cytotoxicity against human MT4 cells expressing CD4 and CXCR4; assay type: cell-based
# [4] = system: Human immunodeficiency virus 1; assay: Antiviral activity against X4 tropic HIV1 infected in human PBMC assessed as inhibition of virus-induced cytopathicity; assay type: functional, organism-based
# [5] = system: Human immunodeficiency virus 1; assay: Antiviral activity against X4 tropic HIV1 infected in human PBMC assessed as inhibition of virus-induced cytopathicity in presence of 1 mg/mL of alpha-acid glycoprotein; assay type: functional
# [6] = molecular target: T1, C-X-C chemokine receptor type 4; assay: Displacement of [125I]SDF-1 from CXCR4 in human CEM-CCRF cells expressing CD4 by liquid scintillation counting; assay type: cell-based
# [7] = system: Rattus norvegicus; assay: (§1) Cmax in rat at 10 umol/kg, iv; assay type: ADME, organism-based; design: dose 10 umol/kg, route intravenous; settings: in vivo
# [8] = Cmax in dog at 5 umol/kg, iv; assay type: ADME, organism-based, Canis lupus familiaris; design: dose 5 umol/kg, route intravenous; settings: in vivo
# [9] = system: Rattus norvegicus; assay: (§2) AUC (0 to infinity) in rat at 10 umol/kg, iv; assay type: ADME, organism-based, Plasma; design: dose 10 umol/kg, time infinity, route intravenous; settings: in vivo
# [10] = system: Canis familiaris; assay: (§3) AUC (0 to infinity) in dog at 5 umol/kg, iv; assay type: ADME, organism-based, Canis lupus familiaris, Plasma; design: dose 5 umol/kg, time infinity, route intravenous; settings: in vivo
# [11] = Volume of distribution in rat at 10 umol/kg, iv; assay type: ADME, organism-based; settings: in vivo
# [12] = Volume of distribution in dog at 5 umol/kg, iv; assay type: ADME, organism-based, Canis lupus familiaris; settings: in vivo
# [13] = system: Rattus norvegicus; assay: (§4) Half life in rat at 10 umol/kg, iv; assay type: ADME, organism-based; settings: in vivo
# [14] = Half life in dog at 5 umol/kg, iv; assay type: ADME, organism-based, Canis lupus familiaris; settings: in vivo
# [15] = Oral bioavailability in rat at 100 umol/kg; assay type: ADME, organism-based; settings: in vivo
# [16] = Oral bioavailability in dog at 12.5 umol/kg; assay type: ADME, organism-based, Canis lupus familiaris; settings: in vivo
# [17] = as §1; assay type: ADME, organism-based; design: dose 10 umol/kg, route intravenous; settings: in vivo, 10 umol/kg
# [18] = as §2; assay type: ADME, organism-based, Plasma; design: dose 10 umol/kg, time infinity, route intravenous; settings: plasma, 10 umol/kg
# [19] = Clearance in rat at 10 umol/kg, iv; assay type: ADME, organism-based; settings: in vivo
# [20] = as §4; assay type: ADME, organism-based; settings: in vivo, 10 umol/kg
# [21] = as §3; assay type: ADME, organism-based, Canis lupus familiaris, Plasma; design: dose 5 umol/kg, time infinity, route intravenous; settings: plasma, 5 umol/kg
# [22] = Clearance in dog at 5 umol/kg, iv; assay type: ADME, organism-based, Canis lupus familiaris; settings: in vivo
# T1 sequence (P61073 whole entry): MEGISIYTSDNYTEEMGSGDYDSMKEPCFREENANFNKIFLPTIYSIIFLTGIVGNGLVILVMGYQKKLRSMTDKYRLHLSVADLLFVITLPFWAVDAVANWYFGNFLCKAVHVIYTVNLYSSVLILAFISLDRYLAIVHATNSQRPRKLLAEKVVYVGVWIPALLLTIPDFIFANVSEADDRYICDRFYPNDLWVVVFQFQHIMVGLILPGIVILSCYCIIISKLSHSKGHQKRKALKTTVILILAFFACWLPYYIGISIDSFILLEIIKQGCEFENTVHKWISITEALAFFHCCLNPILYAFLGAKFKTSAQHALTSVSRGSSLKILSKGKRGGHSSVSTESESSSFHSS
IC50 [1],IC50 [2],Compound,CC50 [3],other results
219 nM,165 nM,NCc1cc(F)ccc1CN(Cc1nc2ccccc2[nH]1)C1CCCc2cccnc21 (configuration not stated),45600 nM,–
5 nM,18 nM,COc1ccc(CN(Cc2nc3ccccc3[nH]2)C2CCCc3cccnc32)c(CN)c1 (configuration not stated),36500 nM,–
10 nM,2 nM,NCc1ccc(CN(Cc2nc3ccccc3[nH]2)C2CCCc3cccnc32)c(CN)c1 (configuration not stated),122000 nM,–
11 nM,17 nM,NCc1cc(CO)ccc1CN(Cc1nc2ccccc2[nH]1)C1CCCc2cccnc21 (configuration not stated),37500 nM,–
21 nM,20 nM,COCc1ccc(CN(Cc2nc3ccccc3[nH]2)C2CCCc3cccnc32)c(CN)c1 (configuration not stated),201000 nM,–
126 nM,69 nM,NCc1cc(C(=O)O)ccc1CN(Cc1nc2ccccc2[nH]1)C1CCCc2cccnc21 (configuration not stated),137000 nM,–
39 nM,105 nM,COC(=O)c1ccc(CN(Cc2nc3ccccc3[nH]2)C2CCCc3cccnc32)c(CN)c1 (configuration not stated),42200 nM,–
15 nM,12 nM,NCc1cc(C(N)=O)ccc1CN(Cc1nc2ccccc2[nH]1)C1CCCc2cccnc21 (configuration not stated),120000 nM,–
5 nM,22 nM,CO/N=C/c1ccc(CN(Cc2nc3ccccc3[nH]2)C2CCCc3cccnc32)c(CN)c1 (configuration not stated),26800 nM,–

# The remaining lines, values behind:
Compound,IC50 [1],IC50 [2],CC50 [3],other results
NCc1ccccc1CN(Cc1nc2ccccc2[nH]1)C1CCCc2cccnc21 (configuration not stated),28 nM,–,–,–
NCc1cc(C(F)(F)F)ccc1CN(Cc1nc2ccccc2[nH]1)C1CCCc2cccnc21 (configuration not stated),51 nM,104 nM,26600 nM,–
NCc1ncccc1CN(Cc1nc2ccccc2[nH]1)[C@H]1CCCc2cccnc21,–,4.2 nM,–,IC50 [4]: 9.9 nM; fold change (FC) [5]: 24; IC50 [6]: 19.8 nM; Cmax [7]: 1200 nM; Cmax [8]: 4200 nM; AUC [9]: 5.4 µM·h; AUC [10]: 13.5 µM·h; Vd [11]: 6.6 L/kg; Vd [12]: 2.6 L/kg; t1/2 [13]: 0.8 h; half-life [14]: 5.7 h; bioavailability [15]: 22%; bioavailability [16]: 84%
NCc1cscc1N(Cc1nc2ccccc2[nH]1)[C@H]1CCCc2cccnc21,–,0.99 nM,–,IC50 [4]: 2 nM; fold change (FC) [5]: 28; IC50 [6]: 88.9 nM; Cmax [17]: 1400 nM; Cmax [8]: 2600 nM; AUC(0-inf) [18]: 3.7 µM·h; AUC [10]: 3.7 µM·h; clearance [19]: 27.2 mL/min/kg; Vd [11]: 5.2 L/kg; Vd [12]: 2.2 L/kg; half-life [20]: 1.7 h; half-life [14]: 3.4 h; bioavailability [15]: 6%; bioavailability [16]: 9%
NCc1cocc1N(Cc1nc2ccccc2[nH]1)[C@H]1CCCc2cccnc21,–,0.31 nM,–,IC50 [4]: 4.1 nM; fold change (FC) [5]: 17; IC50 [6]: 44.5 nM; Cmax [17]: 3000 nM; Cmax [8]: 4700 nM; AUC(0-inf) [18]: 12.5 µM·h; AUC(0-inf) [21]: 16.4 µM·h; clearance [19]: 23.3 mL/min/kg; clearance [22]: 3.7 mL/min/kg; Vd [11]: 3.6 L/kg; Vd [12]: 0.7 L/kg; half-life [20]: 2.1 h; half-life [14]: 2.7 h; bioavailability [15]: 17%; bioavailability [16]: 28%
NCc1ccncc1CN(Cc1nc2ccccc2[nH]1)C1CCCc2cccnc21 (configuration not stated),160 nM,124 nM,128000 nM,–
NCc1nccnc1CN(Cc1nc2ccccc2[nH]1)C1CCCc2cccnc21 (configuration not stated),–,> 1230 nM,6100 nM,–
NCc1sccc1CN(Cc1nc2ccccc2[nH]1)C1CCCc2cccnc21 (configuration not stated),60 nM,14 nM,31500 nM,–
NCc1ccc(CN(Cc2nc3ccccc3[nH]2)C2CCCc3cccnc32)s1 (configuration not stated),–,2480 nM,28500 nM,–
NCc1ccc(CN(Cc2nc3ccccc3[nH]2)C2CCCc3cccnc32)o1 (configuration not stated),–,3570 nM,28500 nM,–
NCc1ccoc1CN(Cc1nc2ccccc2[nH]1)C1CCCc2cccnc21 (configuration not stated),12 nM,0.4 nM,28500 nM,–
NCc1occc1CN(Cc1nc2ccccc2[nH]1)C1CCCc2cccnc21 (configuration not stated),21 nM,8 nM,50000 nM,–
NCc1[nH]cnc1CN(Cc1nc2ccccc2[nH]1)C1CCCc2cccnc21 (configuration not stated),–,> 1160 nM,5800 nM,–
NCc1ocnc1CN(Cc1nc2ccccc2[nH]1)C1CCCc2cccnc21 (configuration not stated),–,2830 nM,32900 nM,–
NCc1ncoc1CN(Cc1nc2ccccc2[nH]1)C1CCCc2cccnc21 (configuration not stated),1.3 nM,7.2 nM,64500 nM,–
NCc1nc(CN(Cc2nc3ccccc3[nH]2)C2CCCc3cccnc32)co1 (configuration not stated),–,20100 nM,28500 nM,–
NCc1ncccc1CN(Cc1nc2ccccc2[nH]1)C1CCCc2cccnc21 (configuration not stated),21 nM,21 nM,150000 nM,–
NCc1cscc1N(Cc1nc2ccccc2[nH]1)C1CCCc2cccnc21 (configuration not stated),13 nM,103 nM,32900 nM,–
NCc1cocc1N(Cc1nc2ccccc2[nH]1)C1CCCc2cccnc21 (configuration not stated),25 nM,10.9 nM,30200 nM,–
